Like-named read-outs stand apart in the source and are kept apart here.
How the values were obtained:
[1] = system: men presenting with premature ejaculation (PE) as defined in the DSM IV; assay: Ejaculatory latency (stopwatch, intromission to ejaculation) in randomized, double-blind, three way crossover evaluation of prn dapoxetine; assay type: in vivo, human; details: for Percentage of patients achieving increases of at least one minute in EL: placebo 14%; for Increase of mean ejaculatory latency from baseline: placebo group 24 seconds
Experimental: The results of an interim analysis of a randomized, double-blind, three way crossover evaluation of two prn doses of dapoxetine (20 mg and 40 mg) in the treatment of premature ejaculation (hereinafter referred to as “PE”) are disclosed in tables 8a and 8b. Each patient is assigned to receive 4 to 6 administrations of each of the 3 study doses, in a random order, over 3 periods of not more than 4 weeks each. The interim analysis of the data was conducted following completion of the first treatment period.
The study comprised 155 men, aged 19 to 60, presenting with PE as defined in the DSM IV. All patients were involved in a stable monogamous sexual relationship of at least 6 months duration and reported a history of intravaginal ejaculatory latency (hereinafter referred to as “EL”) of less than 2 minutes in greater than half of their intercourse experiences. History of significant cardiovascular disease or psychiatric disorder, uncontrolled hypertension, erectile dysfunction, and substance abuse were criteria for exclusion.
(§1) During a lead-in period (maximum of 4 weeks), patients were asked to record ejaculatory latency a minimum of 4 times. Latency is defined as the time span, as measured by the patient's partner via a stopwatch, from vaginal intromission to ejaculation. At the completion of the lead-in period, patients were randomized to treatment with either 20 mg or 40 mg dapoxetine or placebo. Study medication was to be ingested 1 to 3 hours prior to a planned intercourse event. The time study drug was taken and time of intercourse were recorded in an event log. Patients were instructed to attempt intercourse at least 4 times over the 4 week treatment period and were issued a sufficient supply of medication to complete 6 attempts at intercourse. The outcome of each attempt (success of intromission and EL) was recorded in the event log initialed by the patient and their partner. Patients returned to the study clinic for a follow-up visit after 4 to 6 attempts at intercourse were completed. At visits 4, 5, and 6 patients were asked to answer the Global Satisfaction Questions and to complete the PEQ.
Of the 155 patients randomized, 145 completed the treatment period. 54 patients were randomized to the placebo group, while 56 and 45 received 20 mg or 40 mg dapoxetine respectively. Although patients were randomly assigned to treatment sequences in blocks of 6, the imbalance in the number of patients randomized to each group was due to the random distribution of the 40 mg assignment to later allocations within the blocks. The intent-to-treat population was comprised of 143 patients, each of whom had baseline and follow-up data for analysis. Analysis of EL was conducted on the 138 patients who had latency data at baseline and at least one post-medication event. The percentage of patients with data sufficient for inclusion in the analysis of EL was lower in the 40 mg group than in either of the other 2 groups. This difference may be attributable to the smaller size of the 40 mg group, such that each patient represents a greater percentage of the whole, rather than being a function of the dose administered. […]

[2] = system: men presenting with premature ejaculation (PE) as defined in the DSM IV; assay: Global Satisfaction Question in the crossover evaluation of prn dapoxetine; assay type: in vivo, human
Source text: The patient-perceived-benefit of prn dosing method with dapoxetine, or a pharmaceutically acceptable salt thereof, can be determined, for example, through administration of a global satisfaction question, such as:
“How would you complete the following statement?
The new bottle of medication that I received at my previous visit made my premature ejaculation problem:
Measures for “ejaculatory latency” and “number of thrusts prior to ejaculation” should be recorded as the average of the 4-6 events recorded in the event logs for that treatment period. Subjects who ejaculated prior to intromission should have a zero recorded for both “ejaculatory latency” and “number of thrusts prior to ejaculation.” “Measures for Subject and Partner satisfaction scores (global impression)” and “Subject and Partner ejaculatory (or sexual) quality-of-life questionnaire” for each treatment period should be based on the score collected at the visit immediately following each treatment period.
as §1
The results of a final analysis of a randomized, double-blind, three way crossover evaluation of two prn doses of dapoxetine (20 mg and 40 mg) in the treatment of premature ejaculation are disclosed in the following tables. The final analyses of the data was conducted following completion of all 3 treatment periods.

[3] = Plasma concentration profile in volunteers (FIG. 1); assay type: in vivo, human; details: 20 volunteers, 40 mg dapoxetine at time zero of the 14th day of daily dosing
[4] = system: patients (premature ejaculation); details: fluoxetine continuous then prn dosing; cited from earlier work
[5] = system: patients suffering from premature ejaculation; details: 26 patients, cited from earlier work
[6] = system: patients (premature ejaculation); details: cited from earlier work
[7] = system: potent men with premature ejaculation; details: 37 men, 50 mg oral sertraline; cited from earlier work
[8] = final analysis, all patients, 20 mg prn
[9] = final analysis, all patients, 40 mg prn
[10] = patients with baseline less than one minute, 20 mg prn
[11] = patients with baseline less than one minute, 40 mg prn
[12] = patients with baseline less than two minutes, 20 mg prn
[13] = patients with baseline less than two minutes, 40 mg prn
[14] = patients with baseline ≧ one minute, 40 mg prn
[15] = patients with baseline ≧ two minutes, 40 mg prn

SMILES: CN(C)[C@@H](CCOc1cccc2ccccc12)c1ccccc1 [Dapoxetine, (S)-(+)-N,N-Dimethyl-1-phenyl-3-(1-naphthalenyloxy)-propanamine]
- Ejaculatory Latency (LS Mean) ([1]; "Moderate" patients, baseline 1.68, 20 mg prn): 2.64 min
- Ejaculatory Latency (LS Mean) ([1]; "Moderate" patients, baseline 1.68, 40 mg prn): 2.93 min
- Change in Latency (LS Mean) ([1]; "Moderate" patients, 20 mg prn): 0.94 min
- Change in Latency (LS Mean) ([1]; "Moderate" patients, 40 mg prn): 1.27 min
- Ejaculatory Latency (LS Mean) ([1]; "Severe" patients, baseline 1.23, 20 mg prn): 2.60 min
- Ejaculatory Latency (LS Mean) ([1]; "Severe" patients, baseline 1.23, 40 mg prn): 3.09 min
- Change in Latency (LS Mean) ([1]; "Severe" patients, 20 mg prn): 1.42 min
- Change in Latency (LS Mean) ([1]; "Severe" patients, 40 mg prn): 1.93 min
- Change in Latency (LS Mean) [1, 8]: 1.43 min
- Ejaculatory Latency (LS Mean) [1, 8]: 2.78 min
- Change in Latency (LS Mean) [1, 9]: 1.86 min
- Ejaculatory Latency (LS Mean) [1, 9]: 3.19 min
- Ejaculatory Latency (LS Mean) ([1]; final analysis, patients with baseline less than one minute, 20 mg prn): 1.2 min
- Ejaculatory Latency (LS Mean) ([1]; final analysis, patients with baseline less than one minute, 40 mg prn): 1.7 min
- Treatment of premature ejaculation with the first dose (in words) ([1]; first dose administered, no lead-in period (Table 12)): can effectively and unexpectedly treat premature ejaculation with the first dose administered to a patient
- Ejaculatory latency, Mean ± S.D. ([1]; interim analysis, follow-up, first treatment period, 20 mg prn, 50 patients): 2.3 ± 2.26 min
- Ejaculatory latency, Mean ± S.D. ([1]; interim analysis, follow-up, first treatment period, 40 mg prn, 37 patients): 2.3 ± 2.19 min
- Ejaculatory latency, Range ([1]; interim analysis, follow-up, 20 mg prn): 0.1 to 11.4 min
- Ejaculatory Latency (LS Mean) ([1]; interim analysis, follow-up, 20 mg prn, adjusted for baseline and sample size): 2.41 min
- Ejaculatory latency, Range ([1]; interim analysis, follow-up, 40 mg prn): 0.0 to 9.8 min
- Ejaculatory Latency (LS Mean) ([1]; interim analysis, follow-up, 40 mg prn, adjusted for baseline and sample size): 2.52 min
- Ejaculatory latency, Range ([1]; interim analysis, follow-up, 20 & 40 mg combined): 0.0 to 11.4 min
- Ejaculatory latency, Mean ± S.D. ([1]; interim analysis, follow-up, 20 & 40 mg combined, 87 patients): 2.3 ± 2.22 min
- Percentage of patients achieving increases of at least one minute in EL ([1]; interim analysis, 20 mg prn): 22%
- Increase of mean ejaculatory latency from baseline ([1]; interim analysis, 20 mg prn): one
- Percentage of patients achieving increases of at least one minute in EL ([1]; interim analysis, 40 mg prn): 24%
- Increase of mean ejaculatory latency from baseline ([1]; interim analysis, 40 mg prn): one
- Change in Latency (LS Mean) [1, 10]: 0.6 min
- Change in Latency (LS Mean) [1, 11]: 1.3 min
- Change in Latency (LS Mean) [1, 12]: 1.4 min
- Ejaculatory Latency (LS Mean) [1, 12]: 2.4 min
- Change in Latency (LS Mean) [1, 13]: 1.5 min
- Ejaculatory Latency (LS Mean) [1, 13]: 2.5 min
- Ejaculatory Latency (LS Mean) ([1]; patients with baseline ≧ one minute, baseline 1.90, 40 mg prn): 4.24 min
- Change in Latency (LS Mean) [1, 14]: 2.40 min
- Ejaculatory Latency (LS Mean) ([1]; patients with baseline ≧ two minutes, baseline 3.19, 40 mg prn): 6.59 min
- Change in Latency (LS Mean) [1, 15]: 3.43 min
- Ejaculatory Latency (LS Mean) ([1]; recorded after administration of a single dose, 20 mg): 2.37 ± 0.24 min
- Ejaculatory Latency (LS Mean) ([1]; recorded after administration of a single dose, 40 mg): 1.98 ± 0.27 min
- Global Satisfaction: Better/Much Better ([2]; "Moderate" patients, 20 mg prn): 34.4%
- Global Satisfaction: ≧Slightly Better ([2]; "Moderate" patients, 20 mg prn): 51.6%
- Global Satisfaction: Better/Much Better ([2]; "Moderate" patients, 40 mg prn): 50%
- Global Satisfaction: ≧Slightly Better ([2]; "Moderate" patients, 40 mg prn): 66.7%
- Global Satisfaction: Better/Much Better ([2]; "Severe" patients, 20 mg prn): 17.2%
- Global Satisfaction: ≧Slightly Better ([2]; "Severe" patients, 20 mg prn): 48.5%
- Global Satisfaction: Better/Much Better ([2]; "Severe" patients, 40 mg prn): 25.5%
- Global Satisfaction: ≧Slightly Better ([2]; "Severe" patients, 40 mg prn): 54.1%
- Global Satisfaction: Better/Much Better [2, 10]: 13%
- Global Satisfaction: ≧Slightly Better [2, 10]: 38%
- Global Satisfaction: Better/Much Better [2, 11]: 24%
- Global Satisfaction: ≧Slightly Better [2, 11]: 46%
- Global Satisfaction: Better/Much Better [2, 12]: 23%
- Global Satisfaction: ≧Slightly Better [2, 12]: 50%
- Global Satisfaction: Better/Much Better [2, 13]: 29%
- Global Satisfaction: ≧Slightly Better [2, 13]: 50%
- Global Satisfaction: Better/Much Better [2, 14]: 36.4%
- Global Satisfaction: ≧Slightly Better [2, 14]: 65.0%
- Global Satisfaction: Better/Much Better [2, 15]: 39.1%
- Global Satisfaction: ≧Slightly Better [2, 15]: 65.2%
- Plasma concentration profile (in words) [3]: rapid-onset to reach peak plasma concentration followed by rapid metabolism (i.e. short half-life)

SMILES: CNCCC(Oc1ccc(C(F)(F)F)cc1)c1ccccc1 (stereo not drawn) [fluoxetine]
- Patients initially improved with continuous dosing that lost benefit after switching to prn dosing [4]: 100%

SMILES: Fc1ccc([C@@H]2CCNC[C@H]2COc2ccc3c(c2)OCO3)cc1 [paroxetine]
- Ejaculatory latency (in words) ([5]; prn 20 mg paroxetine tablet 3-4 hours prior to intercourse): statistically significant increase in ejaculatory latency in the second through fourth weeks of paroxetine treatment but not in the first week
- Frequency of intercourse (in words) ([5]; prn 20 mg paroxetine): significantly increased only after 3 weeks of prn paroxetine therapy
- Patients with improved ejaculatory latency ([6]; 20 mg prn paroxetine): 42%
- Patients initially improved with continuous dosing that lost benefit after switching to prn dosing ([6]; paroxetine continuous then prn dosing): 37%

SMILES: CN[C@H]1CC[C@@H](c2ccc(Cl)c(Cl)c2)c2ccccc21 [sertraline]
- Conclusion on treatment of premature ejaculation (in words) [7]: appeared to be a useful and well tolerated oral treatment for premature ejaculation after 1 to 2 weeks
